Earlier results on 4 compounds are cited in patent US20100330607A1, “PHOTOSWITCH-ENABLED ION CHANNEL ASSAY SYSTEM” (Photoswitch Biosciences, Inc., priority 2009, published 2010).

For data set [1] the following is noted: read-out: Kd for Ca^2+.
Data set [2] relates to late INa. As to conditions: ventricular myocytes from dog hearts.
Data set [3] deals with late INa. The conditions noted are these: ventricular myocytes from guinea-pig hearts.
The conditions of data set [4]: in the dark, in solution.

Like-named read-outs stand apart in the source and are kept apart here.

Usually Kd stands for the constant that tells how readily two partners part at equilibrium. On to `Cc1ccc(N(CC(=O)O)CC(=O)O)c(OCCOc2cc(-c3c4cc(Cl)c(=O)cc-4oc4cc(O)c(Cl)cc34)ccc2N(CC(=O)O)CC(=O)O)c1` [Fluo-3], for which, in data set [1], the equilibrium dissociation constant (Kd) is 390 nM.
For the compound `COc1ccccc1OCC(O)CN1CCN(CC(=O)Nc2c(C)cccc2C)CC1` (centres unmarked) [ranolazine], the “inhibition of the late INa” value with late INa [2] is “concentration-, voltage- and frequency-dependent inhibition”; in the data set on late INa [3] it was “concentration-, voltage- and frequency-dependent inhibition”.
For the compound Fluo-4, the Kd in data set [1] was 345 nM.
On to Maleimide-Azobenzene-Glutamate [MAG], for which, in data set [4], the “rate of thermal relaxation, from cis to trans” value is on record as “about 18 mins”.
